Where “and” joins values, the source holds several entries; their conditions need not be identical. Equal values may be shown once. Toxic doses and inconclusive results are not listed.
System: P388 leukemia ip, CD2F1 mice, survival T/C
Experiment: NCI In Vivo Anticancer Drug Screen. Data for tumor model P388 Leukemia (intraperitoneal) in CD2F1 (CDF1) mice
Conditions: endpoint: median survival time, higher = longer survival
Procedure, shortened: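 Mice carrying the transplanted tumor received test compound or vehicle. Survival was recorded in each group, and the value is the treated-group measurement divided by that of the vehicle-treated control group.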

[1] = dose: 25.0 mg/kg/injection, schedule: Q01DX009 (ip), vehicle: saline with Tween-80
[2] = dose: 50.0 mg/kg/injection, schedule: Q01DX009 (ip), vehicle: saline with Tween-80
[3] = dose: 100.0 mg/kg/injection, schedule: Q01DX009 (ip), vehicle: saline with Tween-80
[4] = dose: 6.25 mg/kg/injection, schedule: Q01DX009 (ip), vehicle: saline with Tween-80
[5] = dose: 12.5 mg/kg/injection, schedule: Q01DX009 (ip), vehicle: saline with Tween-80
[6] = dose: 12.5 mg/kg/injection, schedule: Q04DX003 (ip), vehicle: Klucel (hydroxypropylcellulose) (HPC)
[7] = dose: 50.0 mg/kg/injection, schedule: Q01DX005 (ip), vehicle: Klucel (hydroxypropylcellulose) (HPC)
[8] = dose: 100.0 mg/kg/injection, schedule: Q01DX005 (ip), vehicle: Klucel (hydroxypropylcellulose) (HPC)
[9] = dose: 50.0 mg/kg/injection, schedule: Q01DX005 (ip), vehicle: saline with Tween-80
[10] = dose: 100.0 mg/kg/injection, schedule: Q01DX005 (ip), vehicle: saline with Tween-80
[11] = dose: 200.0 mg/kg/injection, schedule: Q01DX005 (ip), vehicle: saline with Tween-80
[12] = dose: 100.0 mg/kg/injection, schedule: Q01DX001 (ip), vehicle: saline with Tween-80
[13] = dose: 200.0 mg/kg/injection, schedule: Q01DX001 (ip), vehicle: saline with Tween-80
[14] = dose: 25.0 mg/kg/injection, schedule: Q01DX009 (ip), vehicle: Klucel (hydroxypropylcellulose) (HPC)

COc1ccc(C2NC(c3ccc(OC)cc3)C3CCCC2C3O)cc1 (configuration not stated)
T/C (dose: 100.0 mg/kg/injection, schedule: Q04DX003 (ip), vehicle: saline): 100 % of control
T/C (dose: 200.0 mg/kg/injection, schedule: Q04DX003 (ip), vehicle: saline): 97 % of control
T/C (dose: 400.0 mg/kg/injection, schedule: Q04DX003 (ip), vehicle: saline): 94 % of control

CC1(c2cccc(N(CCCl)CCCl)c2)NC(=O)NC1=O (configuration not stated)
T/C [1]: 166 % of control
T/C [2]: 184 % of control and 204 % of control
T/C [3]: 90 % of control

c1ccc(N2CCCN2c2ccccc2)cc1
T/C (dose: 100.0 mg/kg/injection, schedule: Q04DX002 (ip), vehicle: saline with Tween-80): 101 % of control
T/C (dose: 200.0 mg/kg/injection, schedule: Q04DX002 (ip), vehicle: saline with Tween-80): 99 % of control
T/C (dose: 400.0 mg/kg/injection, schedule: Q04DX002 (ip), vehicle: saline with Tween-80): 98 % of control

Cc1onc(-c2ccccc2)c1C(=O)N/N=C/c1cc(Cl)cc(Cl)c1O
T/C (dose: 50.0 mg/kg/injection, schedule: Q01DX009 (ip), vehicle: saline): 103 % of control
T/C (dose: 100.0 mg/kg/injection, schedule: Q01DX009 (ip), vehicle: saline): 91 % of control
T/C (dose: 200.0 mg/kg/injection, schedule: Q01DX009 (ip), vehicle: saline): 99 % of control

Cc1ccc2ncccc2c1N (tested in a mixture with another compound)
T/C (dose: 6.25 mg/kg/injection, schedule: Q01DX009 (ip), vehicle: gum acacia): 106 % of control
T/C (dose: 12.5 mg/kg/injection, schedule: Q01DX009 (ip), vehicle: gum acacia): 113 % of control
T/C (dose: 25.0 mg/kg/injection, schedule: Q01DX009 (ip), vehicle: gum acacia): 107 % of control
T/C (dose: 50.0 mg/kg/injection, schedule: Q01DX009 (ip), vehicle: gum acacia): 108 % of control

O=C(O)c1ccccc1N=Nc1ccc(N(CCCl)CCCl)cc1
T/C (dose: 3.13 mg/kg/injection, schedule: Q04DX003 (ip), vehicle: Klucel (hydroxypropylcellulose) (HPC)): 122 % of control
T/C [4]: 166 % of control
T/C [5]: 152 % of control and 154 % of control
T/C [6]: 177 % of control
T/C [1]: 162 % of control and 166 % of control
T/C [2]: 99 % of control

CCN(CC)CCNc1ccc(COC(=O)OC)c2oc3ccccc3c(=O)c12
T/C (dose: 6.25 mg/kg/injection, schedule: Q01DX005 (ip), vehicle: saline with Tween-80): 115 % of control
T/C (dose: 12.5 mg/kg/injection, schedule: Q01DX005 (ip), vehicle: saline with Tween-80): 111 % of control
T/C (dose: 25.0 mg/kg/injection, schedule: Q01DX005 (ip), vehicle: saline with Tween-80): 97 % of control

C/C=C(/C)C(=O)OC1C[C@@]2(C)OC2C(OC(C)=O)[C@@]2(C)CC[C@@](O)(C(C)C)C12 (some centres not stated)
T/C (dose: 35.0 mg/kg/injection, schedule: Q01DX005 (ip), vehicle: saline with Tween-80): 101 % of control
T/C (dose: 70.0 mg/kg/injection, schedule: Q01DX005 (ip), vehicle: saline with Tween-80): 96 % of control
T/C (dose: 140.0 mg/kg/injection, schedule: Q01DX005 (ip), vehicle: saline with Tween-80): 90 % of control

COc1ccc(-n2c(-c3ccc(-n4c(C)nc5ccccc5c4=O)cc3)n[nH]c2=S)cc1
T/C (dose: 37.5 mg/kg/injection, schedule: Q01DX005 (ip), vehicle: Klucel (hydroxypropylcellulose) (HPC)): 102 % of control
T/C (dose: 75.0 mg/kg/injection, schedule: Q01DX005 (ip), vehicle: Klucel (hydroxypropylcellulose) (HPC)): 105 % of control
T/C (dose: 150.0 mg/kg/injection, schedule: Q01DX005 (ip), vehicle: Klucel (hydroxypropylcellulose) (HPC)): 104 % of control

CC(=O)Sc1ccccc1C(=O)NC1CCCCC1
T/C [2]: 114 % of control
T/C [3]: 117 % of control
T/C (dose: 200.0 mg/kg/injection, schedule: Q01DX009 (ip), vehicle: saline with Tween-80): 114 % of control

Cc1cc2nc(CN(CCO)CCO)[nH]c2cc1C
T/C (dose: 50.0 mg/kg/injection, schedule: Q01DX005 (ip), vehicle: saline): 100 % of control
T/C (dose: 100.0 mg/kg/injection, schedule: Q01DX005 (ip), vehicle: saline): 98 % of control
T/C (dose: 200.0 mg/kg/injection, schedule: Q01DX005 (ip), vehicle: saline): 98 % of control

NCC1CC2c3ccccc3C1c1ccccc12 (configuration not stated)
T/C (dose: 12.5 mg/kg/injection, schedule: Q01DX005 (ip), vehicle: Klucel (hydroxypropylcellulose) (HPC)): 103 % of control
T/C (dose: 25.0 mg/kg/injection, schedule: Q01DX005 (ip), vehicle: Klucel (hydroxypropylcellulose) (HPC)): 97 % of control
T/C [7]: 99 % of control and 95 % of control
T/C [8]: 106 % of control

CCC1C(OC)=CC(CC)(C(=O)OC)C=C1OC (configuration not stated)
T/C [9]: 100 % of control
T/C [10]: 107 % of control
T/C [11]: 107 % of control

Cc1cc(NCCCCCCCCNc2cc(C)nc3cc(N(C)C)ccc23)c2ccc(N(C)C)cc2n1
T/C (dose: 12.5 mg/kg/injection, schedule: Q04DX002 (ip), vehicle: distilled water + Tween-80 + alcohol): 108 % of control
T/C (dose: 25.0 mg/kg/injection, schedule: Q04DX002 (ip), vehicle: distilled water + Tween-80 + alcohol): 118 % of control
T/C (dose: 100.0 mg/kg/injection, schedule: Q04DX002 (ip), vehicle: distilled water + Tween-80 + alcohol): 172 % of control

CSC(=S)N/N=C(\C)c1ccc[nH]1
T/C [7]: 99 % of control
T/C [8]: 97 % of control

O=C(NCC1OC(n2cnc3c(=O)[nH]cnc32)C(O)C1O)c1ccc(S(=O)(=O)F)cc1 (configuration not stated)
T/C (dose: 50.0 mg/kg/injection, schedule: Q01DX001 (ip), vehicle: saline with Tween-80): 99 % of control
T/C [12]: 96 % of control
T/C [13]: 108 % of control

COC(=O)C12OCC34C(CC5C(C)=C(O)C(=O)CC5(C)C3C(O)C1O)OC(=O)C(OC(=O)N(C)[Si](C)(C)C(C)(C)C)C24 (configuration not stated)
T/C (dose: 125.0 micrograms/kg/injection, schedule: Q01DX005 (ip), vehicle: Klucel (hydroxypropylcellulose) (HPC)): 101 % of control
T/C (dose: 250.0 micrograms/kg/injection, schedule: Q01DX005 (ip), vehicle: Klucel (hydroxypropylcellulose) (HPC)): 95 % of control
T/C (dose: 500.0 micrograms/kg/injection, schedule: Q01DX005 (ip), vehicle: Klucel (hydroxypropylcellulose) (HPC)): 96 % of control
T/C (dose: 1000.0 micrograms/kg/injection, schedule: Q01DX005 (ip), vehicle: Klucel (hydroxypropylcellulose) (HPC)): 95 % of control

O=[N+]([O-])c1cccc2nsnc12
T/C [4]: 100 % of control
T/C [5]: 116 % of control
T/C [1]: 94 % of control
T/C [2]: 107 % of control

O=C(C#Cc1ccccc1)c1cccnc1
T/C [6]: 107 % of control
T/C (dose: 25.0 mg/kg/injection, schedule: Q04DX003 (ip), vehicle: Klucel (hydroxypropylcellulose) (HPC)): 107 % of control

CC1(C)[C@@H]2CC[C@H](OC(=O)/C=C/c3ccccc3)[C@@H]2[C@@H]2CC[C@H]3O[C@]321
T/C (dose: 80.0 mg/kg/injection, schedule: Q01DX001 (ip), vehicle: Klucel (hydroxypropylcellulose) (HPC)): 109 % of control
T/C (dose: 160.0 mg/kg/injection, schedule: Q01DX001 (ip), vehicle: Klucel (hydroxypropylcellulose) (HPC)): 102 % of control
T/C (dose: 320.0 mg/kg/injection, schedule: Q01DX001 (ip), vehicle: Klucel (hydroxypropylcellulose) (HPC)): 100 % of control

CCN(CC)CCOc1ccc(Cl)c(Cl)c1
T/C [9]: 101 % of control
T/C [10]: 106 % of control
T/C [11]: 106 % of control

O=C1[C@@H]2C3C=CC([C@H]4C(=O)N(CO)C(=O)[C@@H]34)[C@@H]2C(=O)N1CO
T/C [14]: 114 % of control
T/C (dose: 200.0 mg/kg/injection, schedule: Q01DX009 (ip), vehicle: Klucel (hydroxypropylcellulose) (HPC)): 152 % of control and 160 % of control

C[Si](Cn1ccc(=O)[nH]c1=O)(c1ccccc1)c1ccccc1
T/C [12]: 109 % of control
T/C [13]: 100 % of control
T/C (dose: 400.0 mg/kg/injection, schedule: Q01DX001 (ip), vehicle: saline with Tween-80): 95 % of control

CCCCCCCCCCCCCCCCCCNCCC#N
T/C (dose: 12.5 mg/kg/injection, schedule: Q01DX009 (ip), vehicle: Klucel (hydroxypropylcellulose) (HPC)): 101 % of control
T/C [14]: 98 % of control and 100 % of control
T/C (dose: 50.0 mg/kg/injection, schedule: Q01DX009 (ip), vehicle: Klucel (hydroxypropylcellulose) (HPC)): 98 % of control and 89 % of control (2×)
T/C (dose: 100.0 mg/kg/injection, schedule: Q01DX009 (ip), vehicle: Klucel (hydroxypropylcellulose) (HPC)): 99 % of control and 87 % of control
